# Entries after “also recorded” stand apart in the source; their conditions may differ.
# Tests used:
# [1] = system: Rhino mouse; assay: Comedolytic effect of topical application to the Rhino mouse (comedone area); type: in vivo; conditions: for response vs control in vivo at 0.217 µmol/kg: dose 217 nmol/kg; for comedone area relative to vehicle-treated group (FIG. 8, 9, 10): 217 nmole/kgBW/day; for response vs control in vivo at 0.069 µmol/kg: dose 69 nmol/kg; for comedone area (FIG. 7, FIG. 10): 69 nmole/kgBW/day; for comedone area relative to vehicle-treated group (FIG. 11): 72 h after final dose
# Text: (§1) Rhino mice were used to topically and orally test the compounds and compositions of the invention. The Rhino mouse is a well-established animal model used to study the comedolytic effects of anti-acne agents including retinoids. (See Boulcier M et al., Experimental Models in Skin Pharmacology, 1990, In Pharmacological Reviews 42:127-15). Mirshahpanah and Maibach, 2007, Cutaneous and Ocular Toxicology 26:195-202). The Rhino mouse model was used to study the therapeutic potential of 2-Methylene-19-nor-20(S)-1α-hydroxy-bishomopregnacalciferol (2MBisP), 19-Nor-26,27-dimethylene-20(S)-2-methylene-1α,25-dihydroxyvitamin D3 (CAGE-3), NEL, 24R-2MD2, Vit-III (17-20E), 2MPregna, 2MP, 20R-2MbisP, 2MTrisP, FF-44, FF-55, HPBS, VD-03 and atRA.
# (§2) Animals and dose administration. Rhino mice 6-10 weeks old were dosed via the oral and/or topical route. In the majority of studies, the mice were dosed daily. In one topical study, the efficacy of daily versus intermittent (Monday/Wednesday/Friday) dosing was compared. The mice were weighed three times per week and doses were adjusted weekly based on body weight. The topical formulations were applied to the back of the animal in a maximum volume of 110 μL. The topical formulations were made by mixing the APIs with a topical carrier comprising 70 vol % propylene glycol and 30 vol % ethanol or 30 vol % propylene glycol and 70 vol % ethanol, as indicated. The topical vehicle control was the vehicle carrier solution matched to the formulation containing API and vehicle carrier.
# (§3) The oral formulation was made by mixing the APIs with Wesson® soybean oil or NeoBee® oil. The oral dose was delivered to the back of the mouth of each mouse. Mice were sacrificed 4 hours after the final oral dose and 72 hours after the final topical dose. At sacrifice, the dorsal skin was collected for histological studies.
# (§4) Comedolytic effect. The extent of the comedolytic effect (i.e., efficacy) was assessed by measuring the average area of the comedones, whereby the smaller the area, the larger the effect. The comedone area was determined by histological analysis of tissue sections based on a method developed in our lab (see FIG. 2). Skin was fixed overnight in 4% paraformaldehyde at 4 deg. C. with gentle agitation and dehydrated the next day into 100% methanol. Samples were embedded in paraffin and a total of nine 10 micron sections 150 microns apart were prepared from each Rhino mouse. Five of the nine sections were digitally imaged (6× magnification) for comedone analysis using Metamorph Imaging Software (trace function). The perimeter of each comedone on the images taken from the 5 sections was then traced using a Wacom Intuos 3 Graphics Tablet interfaced with the software. The number of pixels comprising the area of each individual comedone was obtained and transferred to an Excel spreadsheet, and the mean number of pixels per comedone was obtained for each Rhino mouse. For comedones that were completely healed (area=0) a pixel value approaching 0 (<10) was entered into the spreadsheet. The individual comedone area average for each mouse was then used to calculate the treatment group mean. Results in the figures are expressed in terms of mean±standard error of the mean.
# Preparation of topical formulations containing 2MBisP, CAGE-3, 24R-2MD2, VitIII (17-20E), NEL, VD-03, 2MPregna, 2MP, 20R-2MBisP, 2MTrisP, FF-44, FF-55, and HPBS. Separate concentrated ethanolic stocks of 2MBisP, CAGE-3, 24R-2MD2, VitIII (17-20E) and NEL were diluted to a final concentration containing 70 vol % propylene glycol and 30 vol % ethanol or 30 vol % propylene glycol and 70 vol % ethanol as the excipient carrier system. The mixture was thoroughly mixed. The topical dosing formulation delivered the desired dosing amount of drug on a per kilogram body weight basis. A dose ranging from 100-110 μL in volume was administered to the back of the mouse. An average weight of 24 or 30 g/mouse was assumed in dose volume calculations. […]
# [2] = system: Rhino mouse; assay: Comedolytic effect of oral administration to the Rhino mouse (comedone area); type: in vivo; conditions: oral daily 24 days
# Text: as §1, §2, §3, §4
# Preparation of oral dosing solutions containing 2MBisP, CAGE-3, 24R-2MD2, VitIII (17-20E) and NEL. Separate concentrated stocks of 2MBisP, CAGE-3, 24R-2MD2, VitIII (17-20E) and NEL were obtained in ethanol. The concentration was determined spectrophotometrically using a molar extinction coefficient=42,000 and a λmax=252.7. […] The final dose was delivered in ≦50 μL of oil.
# Preparation of oral atRA dosing formulation. A concentrated stock solution containing atRA was prepared in dichloromethane. The atRA concentrated stock solution was diluted into ethanol. The concentration of atRA in that diluted stock solution was determined spectrophotometrically, whereby the molar extinction coefficient=45,200 and λmax=350. The purity of atRA was determined to be >99% by HPLC. […]
# [3] = Mus musculus, 504 h, daily topical ca. 3 weeks, 70 vol % ethanol/30 vol % propylene glycol, mean ± SEM, read-out: Comedone Area (% Vehicle)
# [4] = daily topical 3 weeks, 70 vol % ethanol/30 vol % propylene glycol
# [5] = topical 217 nmole/kgBW daily (total of 22 doses), 70 vol % ethanol/30 vol % propylene glycol
# [6] = topical 217 nmole/kgBW intermittently Monday, Wednesday, Friday (total of 10 doses), 70 vol % ethanol/30 vol % propylene glycol
compound,measurement,setting,value
"2-(3′hydroxypropyl-1′,2′-idene)-19,23,24-trinor-(20S)-1α-hydroxyvitamin D3 [HPBS]",Comedone Area (% Vehicle),"[1]; daily topical ca. 3 weeks, 70 vol % ethanol/30 vol % propylene glycol, dose 217 to 122 nmol/kg (changed on day 3 or day 10), mean ± SEM",74 ± 10 % Vehicle
"C=C1[C@H](O)CC(=C/C=C2\CCC[C@@H]3C([C@@H](C)CCCC(C)(C)O)CC[C@@H]23)C[C@H]1O (stereo partly drawn) [VD-03, 2-methylene-18,19-dinor-(20S)-1α,25-dihydroxyvitamin D3]",response vs control in vivo at 0.00062 µmol/kg,"[1]; Mus musculus, 504 h, daily topical ca. 3 weeks, 70 vol % ethanol/30 vol % propylene glycol, dose 0.62 nmol/kg, mean ± SEM, read-out: Comedone Area (% Vehicle)",90 ± 14%
"C=C1[C@H](O)CC(=C/C=C2\CCC[C@@]3(C)C2CCC3[C@H](C)CC)C[C@H]1O (stereo partly drawn) [20R-2MBisP, (20R)-1α-hydroxy-2-methylene-19-nor-bishomopregnacalciferol]",response vs control in vivo at 0.217 µmol/kg,[1]; [3],136 ± 17%
same,response vs control in vivo at 0.694 µmol/kg,"[1]; Mus musculus, 504 h, daily topical ca. 3 weeks, 70 vol % ethanol/30 vol % propylene glycol, dose 694 nmol/kg, mean ± SEM, read-out: Comedone Area (% Vehicle)",45 ± 6%
same,response vs control in vivo at 2.187 µmol/kg,"[1]; Mus musculus, 504 h, daily topical ca. 3 weeks, 70 vol % ethanol/30 vol % propylene glycol, dose 2187 nmol/kg, mean ± SEM, read-out: Comedone Area (% Vehicle)",17 ± 3%
same,"comedone area relative to vehicle-treated group (FIG. 8, 9, 10)",[1]; [4],insignificant effect
same,comedone area relative to vehicle-treated group (FIG. 8),"[1]; daily topical 3 weeks, 70 vol % ethanol/30 vol % propylene glycol, 694 nmole/kgBW/day",significant reduction
"C=C1[C@H](O)CC(=C/C=C2\CCC[C@@]3(C)C2CCC3[C@@H](C)CC(F)F)C[C@H]1O (stereo partly drawn) [FF-55, 2-methylene-(20S)-23,23-difluoro-1α-hydroxy-19-nor-bishomopregnancalciferol]",response vs control in vivo at 0.069 µmol/kg,[1]; [3],108 ± 35%
same,response vs control in vivo at 0.217 µmol/kg,[1]; [3],53 ± 8%
same,"comedone area (FIG. 7, FIG. 10)",[1]; [4],insignificant effect
same,"comedone area relative to vehicle-treated group (FIG. 8, 9, 10)",[1]; [4],significant reduction in comedone area
same,comedone area relative to vehicle-treated group (FIG. 11),[1]; [5],significant reduction in comedone area
same,comedone area relative to vehicle-treated group (FIG. 11),[1]; [6],significant reduction in comedone area
"C=C1[C@H](O)CC(=C/C=C2\CCC[C@]3(C)[C@@H]([C@@H](C)CCCC4(O)CCCC4)CC[C@@H]23)C[C@H]1O [CAGE-3, 19-nor-26,27-dimethylene-20(S)-2-methylene-1α,25-dihydroxyvitamin D3]","comedone area vs vehicle control (FIG. 3, FIG. 4)","[1]; topical 3 weeks, 30 vol % ethanol/70 vol % propylene glycol, 0.9 ng/day (ca. 100 pmole/kgBW/day), reduced to 0.45 ng/day on day 10 and 0.22 ng/day on day 19",reduction in the comedone area; also recorded: reduced comedone area
same,comedone area (FIG. 12),[2]; 68 pmole/kgBW/day,reduction in the comedone area
"C=C1[C@H](O)CC(=C/C=C2\CCCC3(C)C2CCC3C(C)C)C[C@H]1O (stereo partly drawn) [2MP, 1α-hydroxy-2-methylene-19-nor-homopregnacalciferol]",response vs control in vivo at 0.217 µmol/kg,[1]; [3],92 ± 20%
same,"comedone area relative to vehicle-treated group (FIG. 8, 9, 10)",[1]; [4],smaller reduction in comedone area
"C=C1[C@H](O)CC(=C/C=C2\CCC[C@@]3(C)C2CCC3[C@H](C)CC(F)F)C[C@H]1O (stereo partly drawn) [FF-44, 2-methylene-(20R)-23,23-difluoro-1α-hydroxy-19-nor-bishomopregnacalciferol]",response vs control in vivo at 0.069 µmol/kg,[1]; [3],104 ± 20%
same,response vs control in vivo at 0.217 µmol/kg,[1]; [3],47 ± 12%
same,"comedone area (FIG. 7, FIG. 10)",[1]; [4],insignificant effect
same,"comedone area relative to vehicle-treated group (FIG. 8, 9, 10)",[1]; [4],significant reduction in comedone area
same,comedone area relative to vehicle-treated group (FIG. 11),[1]; [5],significant reduction in comedone area
same,comedone area relative to vehicle-treated group (FIG. 11),[1]; [6],significant reduction in comedone area
"C=C1[C@H](O)CC(=C/C=C2\CCC[C@@]3(C)C2CCC3[C@@H](C)CCC)C[C@H]1O (stereo partly drawn) [2MTrisP, 2-methylene-(20S)-19-nor-1α-hydroxy-trishomopregnacalciferol]",response vs control in vivo at 0.217 µmol/kg,[1]; [3],66 ± 9%
same,"comedone area relative to vehicle-treated group (FIG. 8, 9, 10)",[1]; [4],significant reduction in comedone area
"C=C1[C@H](O)CC(=C/C=C2\CCC[C@]3(C)C([C@H](C)/C=C/[C@@H](C)C(C)(C)O)CC[C@@H]23)C[C@H]1O (stereo partly drawn) [24R-2MD2, 2-methylene-19-nor-(24R)-1α,25-dihydroxyvitamin D2]",response vs control in vivo at 0.0023 µmol/kg,"[1]; Mus musculus, 504 h, daily topical ca. 3 weeks, 70 vol % ethanol/30 vol % propylene glycol, dose 2.3 nmol/kg, mean ± SEM, read-out: Comedone Area (% Vehicle)",176 ± 55%
same,comedone area (FIG. 13),[2]; 2.3 nmole/kgBW/day,no significant reduction in comedone area
"C=C1[C@H](O)CC(=C/C=C2\CCCC3(C)C(CC)CCC23)C[C@H]1O (stereo partly drawn) [2MPregna, 2-methylene-19-nor-1α-hydroxy-pregnacalciferol]",response vs control in vivo at 0.217 µmol/kg,[1]; [3],63 ± 14%
same,"comedone area relative to vehicle-treated group (FIG. 8, 9, 10)",[1]; [4],significant reduction in comedone area
"C=C1[C@H](O)CC(=C/C=C2\CCC[C@]3(C)/C(=C(\C)CCCC(C)(C)O)CC[C@@H]23)C[C@H]1O [VitIII (17-20E), 2-methylene-1α,25-dihydroxy-(17E)-17(20)-dehydro-19-nor-vitamin D3]",response vs control in vivo at 0.024 µmol/kg,"[1]; Mus musculus, 504 h, daily topical ca. 3 weeks, 70 vol % ethanol/30 vol % propylene glycol, dose 24 nmol/kg, mean ± SEM, read-out: Comedone Area (% Vehicle)",116 ± 15%
same,comedone area (FIG. 13),[2]; 24 nmole/kgBW/day,no significant reduction in comedone area
"C=C1/C(=C\C=C2/CCC[C@]3(C)[C@@H]([C@H](C)CCCC(C)(C)O)CC[C@@H]23)C[C@@H](O)C[C@@H]1O [1,25(OH)2D3, 1,25-DIHYDROXYVITAMIN D3, reference compound]",response vs control in vivo at 0.006 µmol/kg,"[1]; Mus musculus, 504 h, daily topical ca. 3 weeks, 70 vol % ethanol/30 vol % propylene glycol, dose 6.0 nmol/kg, mean ± SEM, read-out: Comedone Area (% Vehicle)",187 ± 30%
"C=C1[C@H](O)CC(=C/C=C2\CCC[C@]3(C)C([C@H](C)CCC[C@H](C)O)CC[C@@H]23)C[C@H]1O (stereo partly drawn) [NEL, 2-methylene-(20R,25S)-19,26-dinor-1α,25-dihydroxyvitamin D3]",response vs control in vivo at 0.0075 µmol/kg,"[1]; Mus musculus, 504 h, daily topical ca. 3 weeks, 70 vol % ethanol/30 vol % propylene glycol, dose 7.5 nmol/kg, mean ± SEM, read-out: Comedone Area (% Vehicle)",156 ± 34%
same,response vs control in vivo at 0.025 µmol/kg,"[1]; Mus musculus, 504 h, daily topical ca. 3 weeks, 70 vol % ethanol/30 vol % propylene glycol, dose 25 nmol/kg, mean ± SEM, read-out: Comedone Area (% Vehicle)",145 ± 24%
same,comedone area (FIG. 14),[2]; 7.5 nmole/kgBW/day,no significant reduction in comedone area
same,comedone area (FIG. 14),[2]; 25 nmole/kgBW/day,no significant reduction in comedone area

# Reference: patent US9339509B2, “Methods of use to orally and topically treat acne and other skin conditions by administering a 19-nor containing vitamin D analog with or without a retinoid” (Wisconsin Alumni Research Foundation, priority 2006, dated 2016)
